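Compound exposure: 48 hours, 5 concentrations, 96-well plates. At the GI50, growth is halved.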 The source made the active and inactive calls. Cut-off read from the data, not from the text of the source: active = GI50 up to about 1.1 µM and inactive = higher.
Legend:
Experiment in all cases: inhibition of tumour cell growth, NCI panel, 48 h
SR = test system: SR
HCT-15 = test system: HCT-15
RXF 631 = test system: RXF 631
ACHN = test system: ACHN
HCT-116 = test system: HCT-116
SN12C = test system: SN12C
DMS-273 = test system: DMS-273
A498 = test system: A498
TK-10 = test system: TK-10
HOP-92 = test system: HOP-92
U-251 = test system: U-251
LOX IMVI = test system: LOX IMVI
COLO 205 = test system: COLO 205
OVCAR-8 = test system: OVCAR-8
SK-MEL-2 = test system: SK-MEL-2
SNB-75 = test system: SNB-75
NCI-H23 = test system: NCI-H23
OVCAR-5 = test system: OVCAR-5
K562 = test system: K562
M14 = test system: M14
NCI-H226 = test system: NCI-H226
RXF 393 = test system: RXF 393
KM12 = test system: KM12
CAKI-1 = test system: CAKI-1
EKVX = test system: EKVX
DLD-1 = test system: DLD-1
HT-29 = test system: HT-29
UO-31 = test system: UO-31
SK-MEL-5 = test system: SK-MEL-5
CCRF-CEM = test system: CCRF-CEM
UACC-257 = test system: UACC-257
SF-268 = test system: SF-268
XF498 = test system: XF498
OVCAR-3 = test system: OVCAR-3
A549 = test system: A549
NCI-H522 = test system: NCI-H522
HL-60 = test system: HL-60
NCI-H460 = test system: NCI-H460
KM-20L2 = test system: KM-20L2
HCC 2998 = test system: HCC 2998
SNB-78 = test system: SNB-78
SW-620 = test system: SW-620
MOLT-4 = test system: MOLT-4
SNB-19 = test system: SNB-19
Malme-3M = test system: Malme-3M
DMS-114 = test system: DMS-114
OVCAR-4 = test system: OVCAR-4
RPMI-8226 = test system: RPMI-8226
SF-295 = test system: SF-295
SK-MEL-28 = test system: SK-MEL-28
LXFL 529 = test system: LXFL 529
HOP-18 = test system: HOP-18
786-0 = test system: 786-0
HOP-62 = test system: HOP-62
SK-OV-3 = test system: SK-OV-3
IGROV-1 = test system: IGROV-1
UACC-62 = test system: UACC-62
M19-MEL = test system: M19-MEL
SF-539 = test system: SF-539

O=C1[C@@H]2C(c3ccc(Br)cc3)=NO[C@@H]2C(=O)N1c1ccc(Cc2ccc(N3C(=O)[C@H]4C(c5ccc(Br)cc5)=NO[C@H]4C3=O)cc2)cc1
GI50 (SR): 19.1 µM (inactive)
GI50 (HCT-15): > 40 µM
GI50 (RXF 631): > 40 µM (inactive)
GI50 (ACHN): > 40 µM (inactive)
GI50 (HCT-116): > 40 µM (inactive)
GI50 (SN12C): > 40 µM (inactive)
GI50 (DMS-273): > 40 µM (inactive)
GI50 (A498): 0.0139 µM (active)
GI50 (TK-10): 16.9 µM (inactive)
GI50 (HOP-92): > 40 µM (inactive)

CCOc1ccc(NC(=O)CCC(=O)NN)cc1
GI50 (U-251): > 100 µM (inactive)
GI50 (LOX IMVI): > 100 µM (inactive)
GI50 (COLO 205): > 100 µM (inactive)
GI50 (OVCAR-8): > 100 µM (inactive)
GI50 (SK-MEL-2): > 100 µM (inactive)
GI50 (SNB-75): > 100 µM (inactive)
GI50 (NCI-H23): > 100 µM (inactive)
GI50 (OVCAR-5): > 100 µM (inactive)
GI50 (K562): > 100 µM (inactive)
GI50 (HCT-15): 68.7 µM
GI50 (M14): > 100 µM (inactive)
GI50 (NCI-H226): > 100 µM (inactive)
GI50 (RXF 393): > 100 µM (inactive)
GI50 (KM12): > 100 µM (inactive)
GI50 (CAKI-1): > 100 µM (inactive)
GI50 (EKVX): > 100 µM (inactive)
GI50 (DLD-1): > 100 µM (inactive)
GI50 (HT-29): > 100 µM (inactive)
GI50 (ACHN): > 100 µM (inactive)
GI50 (UO-31): > 100 µM (inactive)
GI50 (SK-MEL-5): > 100 µM (inactive)
GI50 (CCRF-CEM): > 100 µM (inactive)
GI50 (UACC-257): > 100 µM (inactive)
GI50 (SF-268): > 100 µM (inactive)
GI50 (XF498): 31.7 µM (inactive)
GI50 (OVCAR-3): > 100 µM (inactive)
GI50 (A549): > 100 µM (inactive)
GI50 (NCI-H522): > 100 µM (inactive)
GI50 (HL-60): > 100 µM (inactive)
GI50 (SN12C): 94 µM (inactive)
GI50 (NCI-H460): > 100 µM (inactive)
GI50 (DMS-273): > 100 µM (inactive)
GI50 (KM-20L2): > 100 µM (inactive)
GI50 (HCC 2998): > 100 µM (inactive)
GI50 (SNB-78): > 100 µM (inactive)
GI50 (SW-620): > 100 µM (inactive)
GI50 (MOLT-4): > 100 µM (inactive)
GI50 (SNB-19): > 100 µM (inactive)
GI50 (Malme-3M): > 100 µM (inactive)
GI50 (DMS-114): > 100 µM (inactive)
GI50 (OVCAR-4): > 100 µM (inactive)
GI50 (RPMI-8226): > 100 µM (inactive)
GI50 (TK-10): > 100 µM (inactive)
GI50 (SF-295): > 100 µM (inactive)
GI50 (SK-MEL-28): > 100 µM (inactive)
GI50 (HOP-92): > 100 µM (inactive)
GI50 (LXFL 529): > 100 µM (inactive)
GI50 (HOP-18): > 100 µM (inactive)
GI50 (786-0): > 100 µM (inactive)
GI50 (HOP-62): > 100 µM (inactive)

Nc1ccc(C(=O)N/C(=C\c2cccc([N+](=O)[O-])c2)c2nc3cc(Cl)ccc3[nH]2)cc1
GI50 (U-251): > 100 µM (inactive)
GI50 (COLO 205): > 100 µM (inactive)
GI50 (OVCAR-8): > 100 µM (inactive)
GI50 (SK-MEL-2): > 100 µM (inactive)
GI50 (NCI-H23): > 100 µM (inactive)
GI50 (SK-OV-3): > 100 µM (inactive)
GI50 (OVCAR-5): > 100 µM (inactive)
GI50 (K562): > 100 µM (inactive)
GI50 (SR): > 100 µM (inactive)
GI50 (HCT-15): > 100 µM
GI50 (M14): 74.3 µM (inactive)
GI50 (RXF 393): > 100 µM (inactive)
GI50 (KM12): > 100 µM (inactive)
GI50 (CAKI-1): 77.6 µM (inactive)
GI50 (RXF 631): 63 µM (inactive)
GI50 (EKVX): > 100 µM (inactive)
GI50 (DLD-1): > 100 µM (inactive)
GI50 (HT-29): > 100 µM (inactive)
GI50 (ACHN): > 100 µM (inactive)
GI50 (UO-31): 36.1 µM (inactive)
GI50 (SK-MEL-5): > 100 µM (inactive)
GI50 (CCRF-CEM): > 100 µM (inactive)
GI50 (SF-268): 97.7 µM (inactive)
GI50 (XF498): 43.1 µM (inactive)
GI50 (OVCAR-3): > 100 µM (inactive)
GI50 (A549): 77.3 µM (inactive)
GI50 (NCI-H522): > 100 µM (inactive)
GI50 (SN12C): > 100 µM (inactive)
GI50 (KM-20L2): 17 µM (inactive)
GI50 (HCC 2998): > 100 µM (inactive)
GI50 (SNB-78): > 100 µM (inactive)
GI50 (SW-620): > 100 µM (inactive)
GI50 (MOLT-4): > 100 µM (inactive)
GI50 (SNB-19): > 100 µM (inactive)
GI50 (IGROV-1): > 100 µM (inactive)
GI50 (Malme-3M): > 100 µM (inactive)
GI50 (UACC-62): > 100 µM (inactive)
GI50 (DMS-114): > 100 µM (inactive)
GI50 (OVCAR-4): 50.4 µM (inactive)
GI50 (TK-10): > 100 µM (inactive)
GI50 (SF-295): > 100 µM (inactive)
GI50 (SK-MEL-28): > 100 µM (inactive)
GI50 (HOP-92): 24.4 µM (inactive)
GI50 (M19-MEL): > 100 µM (inactive)
GI50 (LXFL 529): 31 µM (inactive)
GI50 (SF-539): > 100 µM (inactive)
GI50 (786-0): 92 µM (inactive)

Reference: ChEMBL document CHEMBL1201862, “PubChem BioAssay data set” (2004)
